For nine compounds, IC15 and IC30 results are on record in ChEMBL document CHEMBL3046584, “Synthesis, biological activity and docking study of some new isatin Schiff base derivatives” (2012).

Structures are written as SMILES.

What all share (type): functional
The subject of one test is Raji. Nature of the test: Cytotoxicity against Homo sapiens (human) Raji cells assessed as cell viability after 72 hr by MTT assay.
A further test deals with HeLa. Put plainly: Cytotoxicity against Homo sapiens (human) HeLa cells assessed as cell viability after […] by MTT assay. A general note: Tetrazolium assays rely on reduction of a dye to a coloured formazan, in cell work by metabolically active cells.
Test [1] in a line: Cytotoxicity against Homo sapiens (human) LS180 cells assessed as cell viability after 72 hr by MTT assay. Particulars: LS180, 72 h.

Turning to `O=C1Nc2ccccc2/C1=N/Nc1ccc([N+](=O)[O-])cc1`, the IC15 stood at 17 µM with Raji, 3 µM in the test with HeLa and 5.2 µM in test [1]. For the same compound, the concentration for an effect of 30% (IC30) in the test with Raji is greater than 100 µM; in the test on HeLa, 12.2 µM; in test [1] it was 21.8 µM.

Regarding `Cc1nc(Cl)cc(/N=C2\C(=O)Nc3ccccc32)n1`, the IC15 is greater than 100 µM in the test on Raji, 17.4 µM in the test with HeLa and greater than 100 µM in test [1]. Also, the IC30 (in the test with Raji; with HeLa; in test [1]) was greater than 100 µM each time.

Consider `O=C1Nc2ccccc2/C1=N/c1cccc2ccccc12`, for which the IC15 in the test on Raji stood at 48.8 µM; in the test with HeLa it was 15.8 µM; in test [1], 20.8 µM. The 30% effect concentration (IC30) in the test with Raji is greater than 100 µM; in the test on HeLa, 55.9 µM; in test [1] it was greater than 100 µM.

Regarding `Cc1ccccc1N=C1C(=O)Nc2ccccc21`, the IC15 in the test on Raji is 64.8 µM; in the test on HeLa it was 12.3 µM; in test [1] it was greater than 100 µM. Moreover, the IC30 is greater than 100 µM with Raji, 52.6 µM in the test on HeLa and greater than 100 µM in test [1].

Turning to `O=C1Nc2ccccc2/C1=N\c1ccc(Cl)cc1`, the values for the IC15 (in the test with Raji; in the test on HeLa; in test [1]) were 35.4 µM, 15.4 µM and greater than 100 µM, respectively. Besides, the IC30 was 88.1 µM in the test with Raji, 80.2 µM in the test on HeLa and greater than 100 µM in test [1].

As to `O=C1Nc2ccccc2/C1=N/c1ccc(Cl)cn1`, the IC15 in the test on Raji is greater than 100 µM; in the test on HeLa, 21.6 µM; in test [1], greater than 100 µM. Besides, the IC30 is greater than 100 µM in the test on Raji, 65.1 µM with HeLa and greater than 100 µM in test [1].

As to `O=C1Nc2ccccc2/C1=N/c1nc(Cl)cs1`, the IC15 in the test on Raji is 57.3 µM; in the test on HeLa it was 3.2 µM; in test [1], greater than 100 µM. The IC30 in the test with Raji was greater than 100 µM; in the test on HeLa, 35.9 µM; in test [1] it was greater than 100 µM.

On to `O=C1Nc2ccccc2/C1=N/c1nc2ccccc2[nH]1`, for which the IC15 was 15.6 µM in the test with Raji, 43.2 µM with HeLa and greater than 100 µM in test [1]. The IC30 (in the test with Raji; with HeLa; in test [1]) was greater than 100 µM each time.

Take `Cc1conc1/N=C1\C(=O)Nc2ccccc21`: the IC15 with Raji was 30.1 µM; with HeLa, 49.6 µM; in test [1], greater than 100 µM. Further, the IC30 (with Raji; in the test on HeLa; in test [1]) was greater than 100 µM each time.

By IC30 is commonly meant the concentration needed for an effect of 30%.
